Experiment [1] addresses T1, His-BIR2-3 (125-356, C202A/C213G, XIAP) (Homo sapiens, UniProt P98170, C202A/C213G).
T1 construct: additions of His-BIR2-3 (125-356, C202A/C213G, XIAP), fluorescein labeled dimeric SMAC peptide
Nature of the experiment: XIAP-BIR2-3 Dimeric SMAC Peptide Homogeneous Time Resolved Fluorescence (HTRF) Assay. It counts as binding. Particulars: fluorescein labeled dimeric SMAC peptide.

The next experiment addresses T2, His-BIR3 (241-356, XIAP) (Homo sapiens, UniProt P98170).
T2 construct: additions of His-BIR3 (241-356, XIAP), fluorescein labeled SMAC peptide
The experiment in a line: XIAP-BIR3/SMAC Homogeneous Time Resolved Fluorescence (HTRF) Assay. It counts as binding. Particulars: fluorescein labeled SMAC peptide. (In general: TR-FRET usually uses a lanthanide donor and a delayed reading to cut background.)

T1 sequence (P98170 125-356 C202A/C213G): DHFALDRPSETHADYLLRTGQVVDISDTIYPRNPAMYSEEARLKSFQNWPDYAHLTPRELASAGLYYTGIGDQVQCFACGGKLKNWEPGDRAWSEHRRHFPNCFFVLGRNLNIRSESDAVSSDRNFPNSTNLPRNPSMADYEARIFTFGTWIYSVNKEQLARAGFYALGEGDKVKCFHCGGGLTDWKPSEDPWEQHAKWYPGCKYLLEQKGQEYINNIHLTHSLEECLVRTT
T2 sequence (P98170 241-356): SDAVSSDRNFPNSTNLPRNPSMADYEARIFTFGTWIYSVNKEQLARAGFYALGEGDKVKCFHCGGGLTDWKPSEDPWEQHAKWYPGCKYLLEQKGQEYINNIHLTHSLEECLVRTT

Broadly, the IC50 is the concentration that gives 50% inhibition. Higher therefore signals a need for much substance. For `CC[C@H](NC(=O)[C@H](C)NC)C(=O)N1C[C@@H]2C[C@H]1C(=O)N1Cc3ccccc3C[C@H]1C(=O)N[C@H](C(=O)O)Cc1ccc(cc1)C(=O)N[C@H]1C[C@@H](C(=O)N[C@@H](Cc3ccc4ccccc4c3)C(=O)N[C@H](C(=O)O)Cc3ccc(cc3)OC/C=C/CO2)N(C(=O)[C@@H](NC(=O)[C@H](C)NC)C(C)(C)C)C1` [Example 50], the IC50 in experiment [1] came out at 56.7 nM; against His-BIR3 (241-356, XIAP), 80 nM.
Regarding `CN[C@@H](C)C(=O)N[C@H](C(=O)N1C[C@@H]2C[C@H]1C(=O)N[C@@H](Cc1ccc3ccccc3c1)C(=O)N[C@H](C(=O)O)Cc1ccc(cc1)OC/C=C/CO[C@H]1C[C@@H](C(=O)N[C@@H](c3ccccc3)C(=O)N[C@H](C(=O)O)Cc3ccc(cc3)C(=O)N2)N(C(=O)[C@@H](NC(=O)[C@H](C)NC)C(C)(C)C)C1)C(C)(C)C` [Example 51], the IC50 in experiment [1] came out at 4.8 nM; on His-BIR3 (241-356, XIAP), 61 nM.
As to `CN[C@@H](C)C(=O)N[C@H](C(=O)N1C[C@@H]2C[C@H]1C(=O)N[C@@H](Cc1ccc3ccccc3c1)C(=O)N[C@H](C(=O)O)Cc1ccc(cc1)OC/C=C/CO[C@H]1C[C@@H](C(=O)N[C@@H](c3ccccc3)C(=O)N[C@H](C(=O)O)Cc3ccc(cc3)C(=O)N2)N(C(=O)[C@@H](NC(=O)[C@H](C)NC)C(C)(C)C)C1)C(C)(C)C` [Example 53], the IC50 in experiment [1] came out at 2.5 nM; at His-BIR3 (241-356, XIAP), 47.4 nM.
As to `CN[C@@H](C)C(=O)N[C@@H](C)C(=O)N1C[C@@H]2C[C@H]1C(=O)N[C@@H](Cc1ccc3ccccc3c1)C(=O)N[C@H](C(=O)O)CCC(=O)N[C@H]1C[C@@H](C(=O)N[C@@H](Cc3ccc4ccccc4c3)C(=O)N[C@H](C(=O)O)Cc3ccc(cc3)OC/C=C/CO2)N(C(=O)[C@@H](NC(=O)[C@H](C)NC)C(C)(C)C)C1` [Example 55], the IC50 in experiment [1] stood at 108 nM; on His-BIR3 (241-356, XIAP), 252 nM.
On the same counts, the results for `CN[C@@H](C)C(=O)N[C@H](C(=O)N1C[C@@H]2C[C@H]1C(=O)N[C@@H](Cc1ccc3ccccc3c1)C(=O)N[C@H](C(=O)O)CCC(=O)N[C@H]1C[C@@H](C(=O)N[C@@H](Cc3ccc4ccccc4c3)C(=O)N[C@H](C(=O)O)Cc3ccc(cc3)OC/C=C/CO2)N(C(=O)[C@@H](NC(=O)[C@H](C)NC)C(C)(C)C)C1)C(C)C` [Example 56] are 5.9 nM and 57.9 nM.
On the same counts, the results for `CN[C@@H](C)C(=O)N[C@H](C(=O)N1C[C@@H]2C[C@H]1C(=O)N[C@@H](Cc1ccc3ccccc3c1)C(=O)N[C@H](C(=O)O)CCC(=O)N[C@H]1C[C@@H](C(=O)N[C@@H](Cc3ccc4ccccc4c3)C(=O)N[C@H](C(=O)O)Cc3ccc(cc3)OC/C=C/CO2)N(C(=O)[C@@H](NC(=O)[C@H](C)NC)C(C)(C)C)C1)[C@H](C)O` [Example 57] are 12.1 nM and 201 nM.
On the same counts, the results for `CN[C@@H](C)C(=O)N[C@@H](CC(=O)O)C(=O)N1C[C@@H]2C[C@H]1C(=O)N[C@@H](Cc1ccc3ccccc3c1)C(=O)N[C@H](C(=O)O)CCC(=O)N[C@H]1C[C@@H](C(=O)N[C@@H](Cc3ccc4ccccc4c3)C(=O)N[C@H](C(=O)O)Cc3ccc(cc3)OC/C=C/CO2)N(C(=O)[C@@H](NC(=O)[C@H](C)NC)C(C)(C)C)C1` [Example 58] are 138 nM and 757 nM.
Consider `CN[C@@H](C)C(=O)N[C@@H](Cc1c[nH]cn1)C(=O)N1C[C@@H]2C[C@H]1C(=O)N[C@@H](Cc1ccc3ccccc3c1)C(=O)N[C@H](C(=O)O)CCC(=O)N[C@H]1C[C@@H](C(=O)N[C@@H](Cc3ccc4ccccc4c3)C(=O)N[C@H](C(=O)O)Cc3ccc(cc3)OC/C=C/CO2)N(C(=O)[C@@H](NC(=O)[C@H](C)NC)C(C)(C)C)C1` [Example 59], for which the IC50 worked out at 24.3 nM in experiment [1] and 131 nM at His-BIR3 (241-356, XIAP).
With `CN[C@@H](C)C(=O)N[C@@H](Cc1ccccc1)C(=O)N1C[C@@H]2C[C@H]1C(=O)N[C@@H](Cc1ccc3ccccc3c1)C(=O)N[C@H](C(=O)O)CCC(=O)N[C@H]1C[C@@H](C(=O)N[C@@H](Cc3ccc4ccccc4c3)C(=O)N[C@H](C(=O)O)Cc3ccc(cc3)OC/C=C/CO2)N(C(=O)[C@@H](NC(=O)[C@H](C)NC)C(C)(C)C)C1` [Example 60], the IC50 in experiment [1] came out at 9.2 nM; against His-BIR3 (241-356, XIAP) it was 79.5 nM.
On the same counts, the results for `CN[C@@H](C)C(=O)N[C@H](C(=O)N1C[C@@H]2C[C@H]1C(=O)N[C@@H](Cc1ccc3ccccc3c1)C(=O)N[C@H](C(=O)O)Cc1ccc(cc1)OC/C=C/CO[C@H]1C[C@@H](C(=O)N[C@@H](C(c3ccccc3)c3ccccc3)C(=O)N[C@H](C(=O)O)Cc3ccc(cc3)C(=O)N2)N(C(=O)[C@@H](NC(=O)[C@H](C)NC)C(C)(C)C)C1)C(C)(C)C` [Example 62] are 8 nM and 60.2 nM.
Taken in the same sequence, the figures for `CN[C@@H](C)C(=O)N[C@@H](CCC(=O)O)C(=O)N1C[C@@H]2C[C@H]1C(=O)N[C@@H](Cc1ccc3ccccc3c1)C(=O)N[C@H](C(=O)O)Cc1ccc(cc1)C(=O)N[C@H]1C[C@@H](C(=O)N[C@@H](Cc3ccc4ccccc4c3)C(=O)N[C@H](C(=O)O)Cc3ccc(cc3)OC/C=C/CO2)N(C(=O)[C@@H](NC(=O)[C@H](C)NC)C(C)(C)C)C1` [Example 63] were 2.7 nM and 17.9 nM.
Turning to `CN[C@@H](C)C(=O)N[C@@H](CC(=O)O)C(=O)N1C[C@@H]2C[C@H]1C(=O)N[C@@H](Cc1ccc3ccccc3c1)C(=O)N[C@H](C(=O)O)Cc1ccc(cc1)C(=O)N[C@H]1C[C@@H](C(=O)N[C@@H](Cc3ccc4ccccc4c3)C(=O)N[C@H](C(=O)O)Cc3ccc(cc3)OC/C=C/CO2)N(C(=O)[C@@H](NC(=O)[C@H](C)NC)C(C)(C)C)C1` [Example 64], the IC50 in experiment [1] was found to be 5.9 nM; at His-BIR3 (241-356, XIAP), 36.6 nM.
In the case of `CN[C@@H](C)C(=O)N[C@H](C(=O)N1C[C@@H]2C[C@H]1C(=O)N[C@@H](Cc1ccc3ccccc3c1)C(=O)N[C@H](C(=O)O)Cc1ccc(cc1)C(=O)N[C@H]1C[C@@H](C(=O)N[C@@H](Cc3ccc4ccccc4c3)C(=O)N[C@H](C(=O)O)Cc3ccc(cc3)OC/C=C/CO2)N(C(=O)[C@@H](NC(=O)[C@H](C)NC)C(C)(C)C)C1)C(C)O` (stereo partly shown) [Example 65], the IC50 was determined as 1.9 nM in experiment [1] and 14.3 nM on His-BIR3 (241-356, XIAP).
Taken in the same sequence, the figures for `CN[C@@H](C)C(=O)N[C@H](C(=O)N1C[C@@H]2C[C@H]1C(=O)N[C@@H](Cc1ccc3ccccc3c1)C(=O)N[C@H](C(=O)O)Cc1ccc(cc1)C(=O)N[C@H]1C[C@@H](C(=O)N[C@@H](Cc3ccc4ccccc4c3)C(=O)N[C@H](C(=O)O)Cc3ccc(cc3)OC/C=C/CO2)N(C(=O)[C@@H](NC(=O)[C@H](C)NC)C(C)(C)C)C1)C1CCOCC1` [Example 66] were 1.3 nM and 5.2 nM.
Taken in the same sequence, the figures for `CN[C@@H](C)C(=O)N[C@H](C(=O)N1C[C@@H]2C[C@H]1C(=O)N[C@@H](Cc1ccc3ccccc3c1)C(=O)N[C@H](C(=O)O)Cc1ccc(cc1)C(=O)N[C@H]1C[C@@H](C(=O)N[C@@H](Cc3ccc4ccccc4c3)C(=O)N[C@H](C(=O)O)Cc3ccc(cc3)OC/C=C/CO2)N(C(=O)[C@@H](NC(=O)[C@H](C)NC)C(C)(C)C)C1)C(C)C` [Example 68] were 2.7 nM and 15.5 nM.
Taken in the same sequence, the figures for `CN[C@@H](C)C(=O)N[C@@H](CC1CCCCC1)C(=O)N1C[C@@H]2C[C@H]1C(=O)N[C@@H](Cc1ccc3ccccc3c1)C(=O)N[C@H](C(=O)O)Cc1ccc(cc1)C(=O)N[C@H]1C[C@@H](C(=O)N[C@@H](Cc3ccc4ccccc4c3)C(=O)N[C@H](C(=O)O)Cc3ccc(cc3)OC/C=C/CO2)N(C(=O)[C@@H](NC(=O)[C@H](C)NC)C(C)(C)C)C1` [Example 69] were 3.2 nM and 16.4 nM.
In the case of `CN[C@@H](C)C(=O)N[C@@H](Cc1ccccc1)C(=O)N1C[C@@H]2C[C@H]1C(=O)N[C@@H](Cc1ccc3ccccc3c1)C(=O)N[C@H](C(=O)O)Cc1ccc(cc1)C(=O)N[C@H]1C[C@@H](C(=O)N[C@@H](Cc3ccc4ccccc4c3)C(=O)N[C@H](C(=O)O)Cc3ccc(cc3)OC/C=C/CO2)N(C(=O)[C@@H](NC(=O)[C@H](C)NC)C(C)(C)C)C1` [Example 70], the IC50 in experiment [1] is 2 nM; against His-BIR3 (241-356, XIAP), 9.3 nM.
Taken in the same sequence, the figures for `CN[C@@H](C)C(=O)N[C@H](C(=O)N1C[C@@H]2C[C@H]1C(=O)N[C@@H](Cc1ccc3ccccc3c1)C(=O)N[C@H](C(=O)O)Cc1ccc(cc1)C(=O)N[C@H]1C[C@@H](C(=O)N[C@@H](Cc3ccc4ccccc4c3)C(=O)N[C@H](C(=O)O)Cc3ccc(cc3)OC/C=C/CO2)N(C(=O)[C@@H](NC(=O)[C@H](C)NC)C(C)(C)C)C1)C1CCCCC1` [Example 71] were 3.7 nM and 27.9 nM.
Consider `CN[C@@H](C)C(=O)N[C@@H](CC(N)=O)C(=O)N1C[C@@H]2C[C@H]1C(=O)N[C@@H](Cc1ccc3ccccc3c1)C(=O)N[C@H](C(=O)O)Cc1ccc(cc1)C(=O)N[C@H]1C[C@@H](C(=O)N[C@@H](Cc3ccc4ccccc4c3)C(=O)N[C@H](C(=O)O)Cc3ccc(cc3)OC/C=C/CO2)N(C(=O)[C@@H](NC(=O)[C@H](C)NC)C(C)(C)C)C1` [Example 72], for which the IC50 was 9.3 nM in experiment [1] and 48.5 nM against His-BIR3 (241-356, XIAP).
On the same counts, the results for `CN[C@@H](C)C(=O)N[C@H](C(=O)N1C[C@@H]2C[C@H]1C(=O)N[C@@H](Cc1ccc3ccccc3c1)C(=O)N[C@H](C(=O)O)Cc1ccc(cc1)OC/C=C/CO[C@H]1C[C@@H](C(=O)N[C@@H](Cc3ccc4ccccc4c3)C(=O)N[C@H](C(=O)O)Cc3ccc(cc3)C(=O)N2)N(C(=O)[C@@H](NC(=O)[C@H](C)N(C)C(C)=O)C(C)(C)C)C1)C(C)(C)C` [Example 73] are 440 nM and 29.3 nM.

Source of the values: patent publication US20140135270A1, “MACROCYCLIC COMPOUNDS FOR INHIBITION OF INHIBITORS OF APOPTOSIS” (Ensemble Therapeutics Corp., priority 2012, published 2014).
